Results from ChEMBL document CHEMBL5528008, “Design and synthesis of the first PARP-1 and proteasome dual inhibitors to treat breast cancer” (Eur J Med Chem, 2024).
One block for each molecule: values may come before it. Calls of active or inactive are those of the source. No cut-off for these calls is given here.

Columns and labels:
[1] = test system: BT-549; assay: Cytotoxicity against human BT-549 cells assessed as inhibition of cell growth incubated for 72 hrs by MTT assay; format: functional, cell-based; conditions: BT-549, 72 h
[2] = test system: MCF7; assay: Cytotoxicity against human MCF7 cells assessed as inhibition of cell growth incubated for 72 hrs by MTT assay; format: functional, cell-based; conditions: MCF7, 72 h
[3] = test system: MDA-MB-231; assay: Cytotoxicity against human MDA-MB-231 cells assessed as inhibition of cell growth incubated for 72 hrs by MTT assay; format: functional, cell-based; conditions: MDA-MB-231, 72 h
[4] = test system: BT-549; assay: Induction of DNA damage in human BT-549 cells assessed as increase in gamma-H2AX localization in nucleus at 0.125 uM incubated for 48 hrs by fluorescence confocal microscopic analysis; format: functional, cell-based
[5] = test system: BT-549; assay: Synergistic antiproliferative activity against human BT-549 cells assessed as synergistic score in presence of Olaparib; format: functional
[6] = biological target: T1, Poly [ADP-ribose] polymerase 1 (Homo sapiens, UniProt P09874); assay: Inhibition of PARP-1 (unknown origin) using Femto-ECL as substrate preincubated for 2.7 hrs followed by substrate addition by chemiluminescence assay
T1 sequence (P09874 whole entry): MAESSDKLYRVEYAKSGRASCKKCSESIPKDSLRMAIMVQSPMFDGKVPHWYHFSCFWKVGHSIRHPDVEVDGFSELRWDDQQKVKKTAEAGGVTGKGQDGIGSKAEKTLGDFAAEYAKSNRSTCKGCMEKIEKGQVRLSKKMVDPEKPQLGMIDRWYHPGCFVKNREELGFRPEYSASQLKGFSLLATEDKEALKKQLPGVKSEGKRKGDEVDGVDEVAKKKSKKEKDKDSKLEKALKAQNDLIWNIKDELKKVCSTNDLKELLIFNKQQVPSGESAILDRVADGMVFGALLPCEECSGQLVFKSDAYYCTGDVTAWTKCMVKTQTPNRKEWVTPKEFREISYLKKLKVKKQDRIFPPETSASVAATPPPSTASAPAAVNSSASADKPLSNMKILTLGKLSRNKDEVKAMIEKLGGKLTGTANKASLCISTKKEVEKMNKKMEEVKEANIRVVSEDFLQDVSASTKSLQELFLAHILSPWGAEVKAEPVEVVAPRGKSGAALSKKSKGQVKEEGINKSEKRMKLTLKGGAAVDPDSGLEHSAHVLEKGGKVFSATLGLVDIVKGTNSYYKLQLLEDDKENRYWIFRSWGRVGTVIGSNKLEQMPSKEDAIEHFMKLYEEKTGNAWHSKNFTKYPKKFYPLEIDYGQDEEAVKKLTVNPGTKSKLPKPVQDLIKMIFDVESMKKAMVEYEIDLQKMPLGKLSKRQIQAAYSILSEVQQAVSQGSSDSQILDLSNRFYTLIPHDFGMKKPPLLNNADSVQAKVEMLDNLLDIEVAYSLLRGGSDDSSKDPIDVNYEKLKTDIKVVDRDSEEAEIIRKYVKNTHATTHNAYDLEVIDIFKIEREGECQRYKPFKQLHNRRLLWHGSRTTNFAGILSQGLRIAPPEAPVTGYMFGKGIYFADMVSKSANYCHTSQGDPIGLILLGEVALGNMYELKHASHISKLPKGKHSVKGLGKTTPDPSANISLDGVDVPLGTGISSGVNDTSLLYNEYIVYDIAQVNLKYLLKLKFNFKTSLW

[7] = biological target: 20S proteasome; assay: Inhibition of 20S proteasome (unknown origin) using […] as substrate; format: protein-complex assay, Homo sapiens
[8] = biological target: T1, Poly [ADP-ribose] polymerase 1; assay: Inhibition of PARP-1 in human BT-549 cells assessed as downregulation of FANCD2 mRNA expression incubated for 48 hrs by RT-qPCR analysis; format: cell-based
[9] = biological target: T1, Poly [ADP-ribose] polymerase 1; assay: Inhibition of PARP-1 in human BT-549 cells assessed as downregulation of BRCA1 mRNA expression incubated for 48 hrs by RT-qPCR analysis; format: cell-based
[10] = biological target: T1, Poly [ADP-ribose] polymerase 1; assay: Inhibition of PARP-1 in human BT-549 cells assessed as downregulation of BRCA2 mRNA expression incubated for 48 hrs by RT-qPCR analysis; format: cell-based
[11] = biological target: T1, Poly [ADP-ribose] polymerase 1; assay: Inhibition of PARP-1 in human BT-549 cells assessed as downregulation of RAD51 mRNA expression incubated for 48 hrs by RT-qPCR analysis; format: cell-based
[12] = test system: BT-549; assay: Induction of DNA damage in human BT-549 cells assessed as upregulation of gamma-H2AX level at 0.05 uM incubated for 48 hrs by immunoblotting analysis; format: functional, cell-based
[13] = test system: BT-549; assay: Induction of DNA damage in human BT-549 cells assessed as upregulation of gamma-H2AX level at 0.5 uM incubated for 48 hrs by immunoblotting analysis; format: functional, cell-based
[14] = biological target: T1, Poly [ADP-ribose] polymerase 1; assay: Inhibition of PARP-1 in human BT-549 cells assessed as downregulation of P-ATM expression at 0.05 uM incubated for 48 hrs by immunoblotting analysis; format: cell-based
[15] = biological target: T1, Poly [ADP-ribose] polymerase 1; assay: Inhibition of PARP-1 in human BT-549 cells assessed as downregulation of BRCA1 expression at 0.05 uM incubated for 48 hrs by immunoblotting analysis; format: cell-based
[16] = biological target: T1, Poly [ADP-ribose] polymerase 1; assay: Inhibition of PARP-1 in human BT-549 cells assessed as downregulation of RAD51 expression at 0.05 uM incubated for 48 hrs by immunoblotting analysis; format: cell-based
[17] = biological target: T1, Poly [ADP-ribose] polymerase 1; assay: Inhibition of PARP-1 in human BT-549 cells assessed as downregulation of P-ATM expression at 0.5 uM incubated for 48 hrs by immunoblotting analysis; format: cell-based
[18] = biological target: T1, Poly [ADP-ribose] polymerase 1; assay: Inhibition of PARP-1 in human BT-549 cells assessed as downregulation of BRCA1 expression at 0.5 uM incubated for 48 hrs by immunoblotting analysis; format: cell-based
[19] = biological target: T1, Poly [ADP-ribose] polymerase 1; assay: Inhibition of PARP-1 in human BT-549 cells assessed as downregulation of RAD51 expression at 0.5 uM incubated for 48 hrs by immunoblotting analysis; format: cell-based
[20] = test system: BT-549; assay: Induction of DNA damage in human BT-549 cells assessed as decrease in BRCA1 localization in nucleus at 0.125 uM incubated for 48 hrs by fluorescence confocal microscopic analysis; format: functional, cell-based
[21] = test system: BT-549; assay: Induction of DNA damage in human BT-549 cells assessed as decrease in ubiquitin localization in nucleus at 0.125 uM incubated for 48 hrs by fluorescence confocal microscopic analysis; format: functional, cell-based
[22] = test system: BT-549; assay: Induction of DNA damage in human BT-549 cells assessed as increase in polyubiquitination at 0.125 uM incubated for 48 hrs by fluorescence confocal microscopic analysis; format: functional, cell-based
[23] = test system: BT-549; assay: Induction of DNA damage in human BT-549 cells assessed as decrease in polyubiquitination in nucleus at 0.125 uM incubated for 48 hrs by fluorescence confocal microscopic analysis; format: functional, cell-based
[24] = test system: BT-549; assay: Induction in cell cycle arrest in human BT-549 cells assessed as downregulation of Cyclin A2 expression at 0.05 uM incubated for 48 hrs by Western blotting analysis; format: functional, cell-based
[25] = test system: BT-549; assay: Induction in cell cycle arrest in human BT-549 cells assessed as downregulation of Cyclin A2 expression at 0.5 uM incubated for 48 hrs by Western blotting analysis; format: functional, cell-based
[26] = test system: BT-549; assay: Induction in cell cycle arrest in human BT-549 cells assessed as downregulation of CDK1 expression at 0.05 uM incubated for 48 hrs by Western blotting analysis; format: functional, cell-based
[27] = test system: BT-549; assay: Induction in cell cycle arrest in human BT-549 cells assessed as downregulation of CDK1 expression at 0.5 uM incubated for 48 hrs by Western blotting analysis; format: functional, cell-based
[28] = test system: BT-549; assay: Induction in cell cycle arrest in human BT-549 cells assessed as upregulation of p21 expression at 0.05 uM incubated for 48 hrs by Western blotting analysis; format: functional, cell-based
[29] = test system: BT-549; assay: Induction in cell cycle arrest in human BT-549 cells assessed as upregulation of p21 expression at 0.5 uM incubated for 48 hrs by Western blotting analysis; format: functional, cell-based
[30] = test system: BT-549; assay: Induction of apoptosis in human BT-549 cells assessed as upregulation of cleaved caspase-3 expression incubated for 48 hrs by Western blotting analysis; format: functional, cell-based
[31] = test system: BT-549; assay: Induction of apoptosis in human BT-549 cells assessed as upregulation of cleaved PARP expression incubated for 48 hrs by Western blotting analysis; format: functional, cell-based
[32] = test system: BT-549; assay: Induction of apoptosis in human BT-549 cells assessed as increase in early apoptotic cells incubated for 48 hrs by Annexin V-FITC/PI staining based flow cytometric analysis; format: functional, cell-based
[33] = test system: BT-549; assay: Induction of apoptosis in human BT-549 cells assessed as increase in late apoptotic cells incubated for 48 hrs by Annexin V-FITC/PI staining based flow cytometric analysis; format: functional, cell-based
[34] = test system: BT-549; assay: Inhibition of colony formation in human BT-549 cells assessed as reduction in colony number incubated for 14 days by crystal violet staining based analysis; format: functional, cell-based; conditions: time 14.0 day
[35] = test system: BT-549; assay: Inhibition of colony formation in human BT-549 cells assessed as reduction in colony size incubated for 14 days by crystal violet staining based analysis; format: functional, cell-based; conditions: time 14.0 day

Structure (SMILES): CC(C)C[C@H](NC(=O)CNC(=O)c1cc(Cl)ccc1Cl)B(O)O [IXAZOMIB]
IC50 [1]: 227 nM
IC50 [2]: 135 nM
IC50 [3]: 42.6 nM
Activity [4]: inactive
Activity [5]: 12.191

IC50 [6]: 102 nM
IC50 [7]: 82.3 nM
inhibition [8]: Dose-Dependent Effect
inhibition [9]: Dose-Dependent Effect
inhibition [10]: Dose-Dependent Effect
inhibition [11]: Dose-Dependent Effect
inhibition [14]: Active
inhibition [15]: Active
inhibition [16]: Active
inhibition [17]: Active
inhibition [18]: Active
inhibition [19]: Active
Structure (SMILES): CSCC[C@H](NC(=O)c1cc(Cc2n[nH]c(=O)c3ccccc23)ccc1F)C(=O)N[C@@H](CC(C)C)B1O[C@@H]2C[C@@H]3C[C@@H](C3(C)C)[C@]2(C)O1
IC50 [1]: 12.4 nM
IC50 [2]: 60.1 nM
IC50 [3]: 67.6 nM
Activity [12]: Active
Activity [13]: Active
Activity [4]: Active
Activity [20]: Active
Activity [21]: Active
Activity [22]: Active
Activity [23]: Active
Activity [24]: Active
Activity [25]: Active
Activity [26]: Active
Activity [27]: Active
Activity [28]: Active
Activity [29]: Active
Activity [30]: Dose-Dependent Effect
Activity [31]: Dose-Dependent Effect
Activity [32]: Dose-Dependent Effect
Activity [33]: Dose-Dependent Effect
inhibition [34]: Dose-Dependent Effect
inhibition [35]: Dose-Dependent Effect
